Consider 1 compound from patent US20240299334A1, “PHARMACEUTICAL COMPOSITION OF NAPHTHALENE DERIVATIVES AS MULTI-TARGETED THERAPEUTIC AGENTS FOR THE TREATMENT OF ALZHEIMER'S DISEASE” (CENTRO DE NEUROCIENCIAS DE CUBA, CNEURO, priority 2020, published 2024).

The test system of assay [1] is seizures induced by icv administration of kainic acid. The experiment in a line: Seizures induced by icv administration of kainic acid (Racine scale). In kind it is in vivo, mice. The note with it: compound 3 5 and 50 mg/kg oral, 1 h before KA icv; effect greater with 50 mg/kg. As for the experimental part: Young male OF-1 mice (20-25 g), supplied by the National Center for the Laboratory Animals Production (CENPALAB, Cuba) were used. The conditions of adaptation and maintenance of the animals before carrying out the experiment were similar to those developed in non-limiting Example 2. The mice were divided into 5 experimental groups (7 animals group) distributed in: a control group (PBS 2 μL, icv), a seizure control group (KA 2 μL, icv) and three groups treated orally by gastric cannulation with compound 3 at doses of 1, 5, 50 mg/kg […] and KA 2 μL, icv. Compound 3 was prepared as a suspension in 5% carboxymethylcellulose (CMC) vehicle. […]
For the icv administration of KA the mice were anesthetized with 685.71 mg/kg with chloral hydrate i.p. and placed on a dual manipulator. […] Stereotaxic coordinates for the lateral ventricle were precisely measured as: anteroposterior […], lateral±[…] and dorsoventral […] relative to bregma and ventral dura with the tooth bar at […]. A burr hole was made in the skull by automatic microperforation attached to an arm of the stereotaxic apparatus. […]
Statistical Analysis All data are expressed as the mean±standard error of the mean (SEM), and were analyzed using a one-way analysis of variance followed by Turkey's post-hoc test. […]

In the next assay the target is T1, AChE (Mus musculus, UniProt P21836).
T1 construct: the resulting clear supernatants were used as enzyme sources; from tissue; host or cells: mouse whole brain, supernatant of the homogenate (10,000 x G)
T1 sequence (P21836 32-614): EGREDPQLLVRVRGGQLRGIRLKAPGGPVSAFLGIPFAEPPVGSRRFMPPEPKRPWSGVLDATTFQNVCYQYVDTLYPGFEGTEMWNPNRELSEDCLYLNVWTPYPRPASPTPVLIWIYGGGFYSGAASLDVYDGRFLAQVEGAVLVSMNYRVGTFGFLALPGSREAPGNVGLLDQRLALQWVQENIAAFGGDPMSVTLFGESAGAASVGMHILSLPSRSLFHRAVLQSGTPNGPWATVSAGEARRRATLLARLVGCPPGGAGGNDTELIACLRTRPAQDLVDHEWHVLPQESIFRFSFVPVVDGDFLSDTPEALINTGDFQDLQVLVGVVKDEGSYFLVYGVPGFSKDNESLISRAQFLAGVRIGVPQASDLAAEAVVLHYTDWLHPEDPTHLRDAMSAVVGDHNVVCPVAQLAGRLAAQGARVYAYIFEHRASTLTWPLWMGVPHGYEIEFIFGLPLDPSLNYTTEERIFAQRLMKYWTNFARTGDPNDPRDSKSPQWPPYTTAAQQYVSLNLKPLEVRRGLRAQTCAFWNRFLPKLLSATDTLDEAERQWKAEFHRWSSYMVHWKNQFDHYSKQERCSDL
The experiment in a line: AChE activity ex vivo in brain homogenates (Ellman), acute ESC model. Further details: species or system mice. Conditions: soluble fraction of brain homogenates, vs ESC group, 3 p<0.05, donepezil p<0.01. A general note: Ellman's reagent forms a yellow product with free thiols.

Description for AChE: Briefly the procedure was as follows; at the end of the behavioral experiments, the mice were anesthetized and decapitated to quickly remove the brains, which were placed on an ice-cold plate. They were weighed and homogenized (1/10, w/v) in cold 10 mmol/L Tris-HCl buffer, pH 7.2, containing 160 mmol/L sucrose. The homogenates were centrifuged at 10,000×G for 10 minutes at 4° C., and the resulting clear supernatants were used as enzyme sources, which were aliquoted (n=10 per group) and stored at −20° C. The assay was performed in 96-well microtiter plates using Ellman's reagent (DTNB 10 mmol/L), 50 μL homogenate and 10 μL Acetylcholine iodide (AChl, 20 mmol/L) (final volume 200 μL). The absorbance of the yellow hydrolyzate of the 5-thio-2-nitrobenzoic acid dianion (molar extinction coefficient: 13 700 mol/L^−1 cm^−1), was measured at 412 nm, for 20 minutes with an interval of 1 minute. AChE activity was performed in triplicate and was expressed in nmol of hydrolyzed Achl per minute per mg of protein.
All data are expressed as the mean±standard error of the mean (SEM). The comparison of the cholinesterase activity values was carried out by means of a one-way analysis of variance, followed by the Turkey post-hoc test. Statistical analysis was performed using GraphPadPrism version 5 (GraphPad Software, Inc., San Diego, USA).

On to `CSC(=S)NCCNC(=O)CCC(=O)Nc1cccc2ccccc12` [compound 3, methyl(2-{[4-(1-naphthylamino)-4-oxobutanoyl]amino}ethyl)dithiocarbamate], for which the “total seizure score (0-120 minutes)” value in assay [1] is “significant decrease in the total score”. The “AChE activity ex vivo” value on AChE is “significantly reduced”.
